Test results published in US10894817B2, “Fatty acid modified urocortin-2 analogs for the treatment of diabetes and chronic kidney disease” (priority 2016, dated 2021).
Read-outs that look alike come from different tables or passages of the source. Marks after values point to notes of the source that are not given here. Values belong to the molecule of their own block, whether it stands above or below them. Starred links: 1 amine or outer side, 2 acyl side, 3 side chain; linkers in the order of their positions; H or OH if unused. Non-standard residues stand in square brackets, D forms with d. Residues, ends and D or L forms follow the SMILES beside them. Groups on a side chain read outwards from the residue. *: point of attachment. C20 diacid = O=C(O)CCCCCCCCCCCCCCCCCCC(=O)*; C18 diacid = O=C(O)CCCCCCCCCCCCCCCCC(=O)*; γGlu = O=C(O)[C@H](CCC(=O)[*:2])N[*:1]; NMeI = CC[C@H](C)[C@H](NC)C(=O)O; AEEA = NCCOCCOCC(=O)O

Legend:
human CRHR2b = biological target: T1, human CRHR2b (Homo sapiens, UniProt Q13324); experiment: human CRHR2b cell-based cAMP assay; conditions: cAMP assay, read-out: hCRHR2b Average EC50
T1 construct: expressed in transfected cells; host or cells: Chinese Hamster Ovary (CHO) cells, transient transfection
T1 sequence (Q13324 1-438 isoform Q13324-2): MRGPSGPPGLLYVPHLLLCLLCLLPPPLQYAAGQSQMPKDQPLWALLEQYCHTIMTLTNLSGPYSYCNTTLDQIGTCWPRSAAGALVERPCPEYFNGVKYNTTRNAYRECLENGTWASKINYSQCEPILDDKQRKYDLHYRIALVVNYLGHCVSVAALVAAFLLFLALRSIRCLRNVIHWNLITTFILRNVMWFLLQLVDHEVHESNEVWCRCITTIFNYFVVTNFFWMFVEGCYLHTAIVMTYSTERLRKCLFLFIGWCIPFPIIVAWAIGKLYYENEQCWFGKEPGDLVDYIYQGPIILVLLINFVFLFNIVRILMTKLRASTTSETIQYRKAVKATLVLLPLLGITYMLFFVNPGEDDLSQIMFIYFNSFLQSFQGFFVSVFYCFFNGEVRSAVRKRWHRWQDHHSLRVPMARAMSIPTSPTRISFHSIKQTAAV
How it was run: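 ED50 values are means ± SEM over several runs, curve-fitted from cAMP in pmol, calibrated against unlabeled-cAMP standards. Detection was HTRF competition, ratio 665/620 nm, after 30 min agonist exposure at 37 °C.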

[1] = Pharmacokinetics, single subcutaneous dose, mice; conditions: male, CD-1, mouse, plasma, sc, 388 nmol/kg
Procedure: Plasma concentrations of compounds were determined by LC/MS methods. Each method measured the intact compound; peptide plus linked time extension. For each assay, the compound and an analog, used as an internal standard (IS), were extracted from 100% mouse, rat or monkey plasma (25 μl) using acetonitrile. Two distinct layers were formed upon centrifugation with the compound and the IS located in the supernatant layer. An aliquot of the supernatant (80 μl) was transferred to a Thermo Protein Precipitation Plate with water (150 μl) and formic acid (25 μl) followed by mixing. A final 31% acetonitrile in 10% formic acid sample (10 μl) was loaded onto a Supelco Analytical Discovery BIO Wide Pore C5-3 column (5 cm×1 mm, 3 μm). The column effluent was directed into a Thermo Q-Exactive mass spectrometer for detection and quantitation.
Male CD-1 mice were administered a single subcutaneous dose (350, 386 or 388 nmol/kg) of a compound described herein in 20 mM Tris-HCl Tris Buffer (pH 7 or 8) at a volume of 0.05 or 0.06 mL/animal. Blood was collected at 6, 12, 24, 48, 72, 96, 120 and 168 hours postdose for pharmacokinetic characterization (101).

[2] = tested on: UniNx db/db AAV renin mice; experiment: Uninephrectomized db/db AAV renin model of diabetic nephropathy; format: in vivo
Procedure: The uninephrectomized db/db adeno-associated viral (AAV) renin model represents a progressive model of diabetic kidney disease with hypertension driven by an AAV renin transgene (Am J Physiol Regul Integr Comp Physiol. 309(5):R467-74, (2015)).
The uninephrectomy (UniNx) surgery on female db/db mice on a C57BLKS/J background (obtained from Harlan Laboratories) is performed by Harlan Laboratories at 4 weeks of age with removal of the right kidney to accelerate the diabetic kidney disease. Animals are received at 5 weeks of age and housed in micro-isolator cages at 3 mice per cage and are on a 12 hour light/dark cycle. All db/db mice are fed ad libitum with Purina special diet 5008 and allowed free access to autoclaved water.
Mice are acclimated for 7 weeks prior to administration of AAV Renin (5×10^9 GC) intravenously by the retro-orbital sinus to induce persistent hypertension. Randomization by urine albumin to creatinine ratio (ACR), blood glucose and body weight is done at 15 weeks of age (a point at which renal disease and pathology are established in this model based on observations) into 2 groups of 12 saline control mice and 33 mice to receive Lisinopril treatment.
Dosing with Lisinopril (30 mg/L) begins at 16 weeks of age. After 2 weeks of Lisinopril treatment, the 33 mice are randomized by urine ACR, blood glucose and body weight into 4 groups (one group of 9 mice and 3 groups of 8 mice).
In the 4 groups of UniNx db/db AAV renin mice receiving Lisinopril treatment, either 0.9% physiological saline for injection (“saline control” N=9) or different dose levels of Example 4 (7.2, 24 or 72 nmol/kg, N=8 per dose level) are dosed at 0.2 mL s.c. per injection beginning at 18 weeks of age and continued 3 times weekly for 12 weeks. Albumin and creatinine are measured in urine with a Roche Hitachi Modular Analytics P analyzer with Roche reagents for detection of albumin and creatinine.
For all the groups, the parameters measured are body weight, kidney weight, heart weight, urine albumin to creatinine ratio, serum creatinine and renal pathology scores for mesangial matrix expansion, glomerular fibrosis, tubular regeneration, interstitial inflammation and interstitial fibrosis.
At 15 and 27 weeks of age, blood (30 to 50 uL) from all the UniNx db/db AAV Renin mice is obtained from the tail vein and dropped onto a Precision PCx blood glucose sensor electrode strip (Abbott Laboratories) for blood glucose determination with a MediSense Precision PCx glucometer (Abbott Laboratories). Blood glucose data is used to block the UniNx db/db mice into equivalent groups. Body weight is determined at baseline and at termination with a Metler Toledo Balance. The heart and kidney are removed at necropsy and weighed on a Metler Toledo Balance. Blood (500 ul) is collected from the retro-orbital sinus at termination under isoflurane anesthesia. The clotted blood is centrifuged to obtain serum. Serum is analyzed for creatinine on a Roche Hitachi Modular Analytics P analyzer with reagents from Roche.
Urine is collected by a spot collection method to collect urine over a 2-4 hr time period. An individual mouse is placed on top of a 96 well polypropylene microplate and then covered by a Plexiglas chamber with holes for breathing but no access to food or water. At the end of the time period, the urine is removed from the plate with a micropipette and placed on ice, centrifuged and subjected to albumin and creatinine analysis. Urine albumin, creatinine and glucose are determined on a Roche Hitachi Modular Analytics P analyzer. Urine creatinine is determined with the Creatinine Plus reagent by Roche. For urine albumin, the Roche Microalbumin assay is modified to adapt the calibration curve for measuring urine albumin in mice. Albuminuria was defined as albumin to creatinine ratio (ACR).
Kidneys are removed at study termination, fixed in formalin and processed for paraffin sectioning according to standard methodology. […]

[3] = Lisinopril plus Saline, after 12 weeks, scale none (0) to severe (5)
[4] = UniNx db/db AAV renin mice, Lisinopril plus Saline, after 12 weeks
[5] = UniNx db/db AAV renin mice, Lisinopril plus Saline, baseline

EC50 (human CRHR2b; CHO cells transfected with human CRHR2b, mean ± SEM of runs): 2.44 ± 1.36 nM | AUC(0-inf) [1]: 32.2 µM·h | CL/F [1]: 0.202 mL/min/kg | Cmax [1]: 1150 nM | Tmax [1]: 12 h | half-life [1]: 16 h
SMILES: CC[C@H](C)[C@H](NC(C)=O)C(=O)N[C@H](C(=O)N[C@@H](CC(C)C)C(=O)N[C@@H](CO)C(=O)N[C@@H](CC(C)C)C(=O)N[C@@H](CC(=O)O)C(=O)N[C@H](C(=O)N1CCC[C@H]1C(=O)N[C@H](C(=O)NCC(=O)N[C@@H](CC(C)C)C(=O)N[C@@H](CC(C)C)C(=O)N[C@@H](CCC(N)=O)C(=O)N[C@H](C(=O)N[C@@H](CC(C)C)C(=O)N[C@@H](CC(C)C)C(=O)N[C@@H](CCC(=O)O)C(=O)N[C@@H](CCC(N)=O)C(=O)N[C@@H](CCC(=O)O)C(=O)N[C@@H](CCCCN)C(=O)N[C@@H](CCC(N)=O)C(=O)N[C@@H](CCC(=O)O)C(=O)N[C@@H](CCCCN)C(=O)N[C@@H](CCC(=O)O)C(=O)N[C@@H](CCCCN)C(=O)N[C@@H](CCC(N)=O)C(=O)N[C@@H](CCC(N)=O)C(=O)N[C@@H](C)C(=O)N[C@@H](CCCCNC(=O)COCCOCCNC(=O)COCCOCCNC(=O)CC[C@H](NC(=O)CC[C@H](NC(=O)CCCCCCCCCCCCCCCCC(=O)O)C(=O)O)C(=O)O)C(=O)N[C@H](C(=O)N[C@@H](CC(N)=O)C(=O)N[C@@H](C)C(=O)N[C@@H](CCC(N)=O)C(=O)N[C@H](C(=O)N[C@@H](CC(C)C)C(=O)N[C@@H](C)C(=O)N[C@@H](CCC(N)=O)C(=O)N[C@H](C(N)=O)C(C)C)[C@@H](C)CC)[C@@H](C)O)[C@@H](C)CC)[C@@H](C)CC)C(C)C)C(C)C [Example 1] (Ac-IVLSLDVPIGLLQILLEQEKQEKEKQQAK([AEEA-AEEA-γGlu-γGlu-C18 diacid])TNAQILAQV-NH2)

SMILES: NCCCC[C@H](N[C@@H](CCc1ccccc1)C(=O)O)C(=O)N1CCC[C@H]1C(=O)O [Lisinopril]
Glomerular Fibrosis, pathology score [2, 3]: 1.4 ± 0.2 ^a | Interstitial Fibrosis, pathology score [2, 3]: 2.0 ± 0.3 ^ | Interstitial Inflammation, pathology score [2, 3]: 1.1 ± 0.3 ^a | Mesangial Matrix Expansion, pathology score [2, 3]: 2.1 ± 0.1 ^a | Tubular Regeneration, pathology score [2, 3]: 2.0 ± 0.2 ^a | Albumin to Creatinine Ratio (ACR) ([2]; Lisinopril plus Saline, week 0 of treatment with Example 4): 15203 ± 2835 ^ | Albumin to Creatinine Ratio (ACR) ([2]; Lisinopril plus Saline, week 1): 16491 ± 3362 ^ | Albumin to Creatinine Ratio (ACR) ([2]; Lisinopril plus Saline, week 2): 16160 ± 4162 ^a | Albumin to Creatinine Ratio (ACR) ([2]; Lisinopril plus Saline, week 3): 13069 ± 3295 ^a | Albumin to Creatinine Ratio (ACR) ([2]; Lisinopril plus Saline, week 6): 11584 ± 3132 ^a | Albumin to Creatinine Ratio (ACR) ([2]; Lisinopril plus Saline, week 8): 12484 ± 4626 ^a | Albumin to Creatinine Ratio (ACR) ([2]; Lisinopril plus Saline, week 10): 20429 ± 4998 ^a | Albumin to Creatinine Ratio (ACR) ([2]; Lisinopril plus Saline, week 12): 19075 ± 6268 ^a | deaths over the course of the study ([2]; Lisinopril plus saline group (N=9)): 2 | Final Blood Glucose [2, 4]: 466 mg/dL | Final Body Weight [2, 4]: 61.8 g | Heart Weight [2, 4]: 227 mgs | Kidney Weight [2, 4]: 392 mgs | Serum Creatinine [2, 4]: 0.130 mg/dL | Initial Blood Glucose [2, 5]: 444 mg/dL | Initial Body Weight [2, 5]: 61.6 g

EC50 (human CRHR2b; Table 26, compounds of Example 9): 2.5 nM
SMILES: CC[C@H](C)[C@H](NC)C(=O)N[C@H](C(=O)N[C@@H](CC(C)C)C(=O)N[C@@H](CO)C(=O)N[C@@H](CC(C)C)C(=O)N[C@@H](CC(=O)O)C(=O)N[C@H](C(=O)N1CCC[C@H]1C(=O)N[C@H](C(=O)NCC(=O)N[C@@H](CC(C)C)C(=O)N[C@@H](CC(C)C)C(=O)N[C@@H](CCC(N)=O)C(=O)N[C@H](C(=O)N[C@@H](CC(C)C)C(=O)N[C@@H](CC(C)C)C(=O)N[C@@H](CCC(=O)O)C(=O)N[C@@H](CCC(N)=O)C(=O)N[C@@H](CCC(=O)O)C(=O)N[C@@H](CCCCN)C(=O)N[C@@H](CCC(N)=O)C(=O)N[C@@H](CCC(=O)O)C(=O)N[C@@H](CCCCN)C(=O)N[C@@H](CCC(=O)O)C(=O)N[C@@H](CCCCN)C(=O)N[C@@H](CCC(N)=O)C(=O)N[C@@H](CCC(N)=O)C(=O)N[C@@H](C)C(=O)N[C@@H](CCCCNC(=O)CC[C@H](NC(=O)COCCOCCNC(=O)CC[C@H](NC(=O)CC[C@H](NC(=O)CCCCCCCCCCCCCCCCCCC(=O)O)C(=O)O)C(=O)O)C(=O)O)C(=O)N[C@H](C(=O)N[C@@H](CC(N)=O)C(=O)N[C@@H](C)C(=O)N[C@@H](CCC(N)=O)C(=O)N[C@H](C(=O)N[C@@H](CC(C)C)C(=O)N[C@@H](C)C(=O)N[C@@H](CCC(N)=O)C(=O)N[C@H](C(N)=O)C(C)C)[C@@H](C)CC)[C@@H](C)O)[C@@H](C)CC)[C@@H](C)CC)C(C)C)C(C)C [Compound 61] (H-[NMeI]VLSLDVPIGLLQILLEQEKQEKEKQQAK([γGlu-AEEA-γGlu-γGlu-C20 diacid])TNAQILAQV-NH2)
